Reference: patent US10538497B2, “Compounds as indoleamine 2,3-dioxygenase inhibitors” (Merck Sharp & Dohme Corp., priority 2015, dated 2020)

Assays:
IDO1 [1] = molecular target: T1, IDO1 (Homo sapiens (Human), UniProt P14902); assay: IDO1 Cellular Assay in Frozen HEK293 Cells Transiently Transfected with Human IDO1; type: cell-based; conditions: HEK293 cells transiently transfected with human IDO1; read-out: IDO1 HEK293 Cell Assay, IC50
IDO1 [2] = molecular target: T1, IDO1; assay: IDO1 Cellular Assay in Hela Cells Stimulated with IFNγ; type: cell-based; conditions: Hela cells stimulated with IFNγ 100 ng/mL; read-out: IDO1 HELA Cell Assay, IC50
IDO1 [3] = molecular target: T1, IDO1; assay: IDO1 Enzyme Assay; conditions: HIS-tagged recombinant IDO1, 40 nM
[4] = read-out: IDO1 Enzyme Assay, IC50

T1 sequence (P14902 whole entry): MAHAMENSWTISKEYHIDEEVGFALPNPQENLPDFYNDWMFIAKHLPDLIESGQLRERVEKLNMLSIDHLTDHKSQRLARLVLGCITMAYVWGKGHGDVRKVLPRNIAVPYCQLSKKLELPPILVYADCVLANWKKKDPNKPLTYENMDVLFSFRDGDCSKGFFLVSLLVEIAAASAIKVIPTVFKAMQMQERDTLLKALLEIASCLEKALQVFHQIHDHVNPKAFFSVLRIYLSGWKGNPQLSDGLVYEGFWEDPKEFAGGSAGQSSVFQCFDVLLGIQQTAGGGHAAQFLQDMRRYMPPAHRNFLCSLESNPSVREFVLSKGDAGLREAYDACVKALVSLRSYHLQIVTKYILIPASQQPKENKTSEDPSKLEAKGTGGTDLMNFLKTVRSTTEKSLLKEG

Row | Compound | IC50 (IDO1 [1]) [nM] | IC50 (IDO1 [2]) [nM] | IC50 (IDO1 [3]; [4]) [nM] | IC50 (IDO1 [3]; IDO1 Enzyme Assay, IC50, nM) [nM]
1 | O=C(CCSc1nonc1/C(=N/O)Nc1ccc(F)c(Br)c1)NCCO [Example 107, 3-({4-[N-(3-bromo-4-fluorophenyl)-N′-hydroxycarbamimidoyl]-1,2,5-oxadiazol-3-yl}sulfanyl)-N-(2-hydroxyethyl)propanamide] | 43.1 | 48.3 | 30.1 | –
2 | CCNC(=O)CSc1nonc1C(=NO)Nc1ccc(F)c(Br)c1 [Example 110, 2-({4-[N-(3-bromo-4-fluorophenyl)-N′-hydroxycarbamimidoyl]-1,2,5-oxadiazol-3-yl}sulfanyl)-N-ethylacetamide] | 25.6 | 54.3 | – | 48.5
3 | CN(C)C(=O)CSc1nonc1C(=NO)Nc1ccc(F)c(Br)c1 [Example 111, 2-({4-[N-(3-bromo-4-fluorophenyl)-N′-hydroxycarbamimidoyl]-1,2,5-oxadiazol-3-yl}sulfanyl)-N,N-dimethylacetamide] | 446 | 685 | – | 59.6
4 | O=C(CSc1nonc1C(=NO)Nc1ccc(F)c(Br)c1)NCCO [Example 112, 2-({4-[N-(3-bromo-4-fluorophenyl)-N′-hydroxycarbamimidoyl]-1,2,5-oxadiazol-3-yl}sulfanyl)-N-(2-hydroxyethyl)acetamide] | 40 | 40.8 | – | 54.2
5 | O=C(CSc1nonc1/C(=N/O)Nc1ccc(F)c(Br)c1)NC1CC1 [Example 113, 2-({4-[N-(3-bromo-4-fluorophenyl)-N′-hydroxycarbamimidoyl]-1,2,5-oxadiazol-3-yl}sulfanyl)-N-cyclopropylacetamide] | 35.4 | 76.5 | – | 47.3
6 | O=C(CSc1nonc1C(=NO)Nc1ccc(F)c(Br)c1)NC1CCC1 [Example 114, 2-({4-[N-(3-bromo-4-fluorophenyl)-N′-hydroxycarbamimidoyl]-1,2,5-oxadiazol-3-yl}sulfanyl)-N-cyclobutylacetamide] | 97 | 148 | – | 36.9
7 | CC(=O)CSc1nonc1/C(=N/O)Nc1ccc(F)c(Br)c1 [Example 115, N-(3-bromo-4-fluorophenyl)-N′-hydroxy-4-[(2-oxopropyl)sulfanyl]-1,2,5-oxadiazole-3-carboximidamide] | 105 | 168 | 51 | –
8 | CN1C(=O)NC[C@H]1CSc1nonc1/C(=N/O)Nc1ccc(F)c(Br)c1 [Example 121, N-(3-bromo-4-fluorophenyl)-N′-hydroxy-4-({[(4S)-3-methyl-2-oxoimidazolidin-4-yl]methyl}sulfanyl)-1,2,5-oxadiazole-3-carboximidamide] | 45.8 | 39.7 | 47.7 | –
9 | CN1C[C@@H](CSc2nonc2/C(=N/O)Nc2ccc(F)c(Br)c2)NC1=O [Example 122, N-(3-bromo-4-fluorophenyl)-N′-hydroxy-4-({[(4S)-1-methyl-2-oxoimidazolidin-4-yl]methyl}sulfanyl)-1,2,5-oxadiazole-3-carboximidamide] | 23.3 | 26.7 | 37.7 | –
10 | CN1C[C@H](CSc2nonc2/C(=N/O)Nc2ccc(F)c(Br)c2)NC1=O [Example 123, N-(3-bromo-4-fluorophenyl)-N′-hydroxy-4-({[(4R)-1-methyl-2-oxoimidazolidin-4-yl]methyl}sulfanyl)-1,2,5-oxadiazole-3-carboximidamide] | 37.8 | 75.7 | 44.2 | –
11 | O=C1NCC(CSc2nonc2/C(=N/O)Nc2ccc(F)c(Br)c2)O1 (stereo not drawn) [Example 124, N-(3-bromo-4-fluorophenyl)-N′-hydroxy-4-{[(2-oxo-1,3-oxazolidin-5-yl)methyl]sulfanyl}-1,2,5-oxadiazole-3-carboximidamide] | 65.6 | 56.2 | 34.5 | –
12 | O/N=C(\Nc1ccc(F)c(Br)c1)c1nonc1SCCN1CCOCC1 [Example 126, N-(3-bromo-4-fluorophenyl)-N′-hydroxy-4-[(2-morpholin-4-ylethyl)sulfanyl]-1,2,5-oxadiazole-3-carboximidamide] | 52.9 | 92.6 | 57.5 | –
